In patent US20240190880A1 (THE REGENTS OF THE UNIVERSITY OF MICHIGAN, priority 2021, published 2024):

These compounds were tested against T1, ER (Homo sapiens, UniProt P03372) (assay: ER degradation activity, in-cell western blot analysis in T47D cells). Conditions: 16 hours, Table A does not say which cell line (T47D or MCF7), read-out: Potency (DC50).
T1 construct: host or cells: T47D and MCF7 human breast cancer cells
T1 sequence (P03372 1-595): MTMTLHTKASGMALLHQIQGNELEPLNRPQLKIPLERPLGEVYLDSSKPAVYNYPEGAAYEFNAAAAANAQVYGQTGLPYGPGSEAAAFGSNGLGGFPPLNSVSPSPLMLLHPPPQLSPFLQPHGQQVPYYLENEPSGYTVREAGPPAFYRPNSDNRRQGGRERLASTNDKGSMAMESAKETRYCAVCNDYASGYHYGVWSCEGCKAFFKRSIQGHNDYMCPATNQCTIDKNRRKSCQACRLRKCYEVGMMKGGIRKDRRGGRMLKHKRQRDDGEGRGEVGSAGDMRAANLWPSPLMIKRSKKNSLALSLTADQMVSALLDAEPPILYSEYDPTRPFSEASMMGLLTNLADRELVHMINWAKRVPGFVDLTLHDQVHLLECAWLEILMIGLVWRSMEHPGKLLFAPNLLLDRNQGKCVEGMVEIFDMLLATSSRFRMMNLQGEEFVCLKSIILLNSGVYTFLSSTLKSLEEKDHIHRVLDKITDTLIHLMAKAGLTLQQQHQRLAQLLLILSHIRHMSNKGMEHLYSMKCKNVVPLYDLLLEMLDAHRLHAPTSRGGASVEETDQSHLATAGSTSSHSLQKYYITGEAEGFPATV
Assay type: cell-based
Method in brief: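 ER protein remaining after 16 h compound exposure is quantified in T47D cells by in-cell western, with a no-primary-antibody background control. Values are percentages of DMSO-treated signal.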
With `O=C1CCC(N2C(=O)c3cc4c(cc3C2=O)CN(C(=O)CN2CCC3(CC2)CCN(c2ccc([C@@H]5c6ccc(O)cc6CC[C@@H]5c5ccc(F)cc5)cc2)C3)C4)C(=O)N1` (mixture of isomers) [E 152, Rac-2-(2,6-dioxopiperidin-3-yl)-6-(2-(2-(4-((1R,2S)-2-(4-fluorophenyl)-6-hydroxy-1,2,3,4-tetrahydronaphthalen-1-yl)phenyl)-2,8-diazaspiro[4.5]decan-8-yl)acetyl)-6,7-dihydropyrrolo[3,4-f]isoindole-1,3(2H,5H)-dione] the DC50 was over 0.1 µM. With `C[C@@H]1Cc2c([nH]c3ccccc23)[C@@H](c2c(F)cc(N3CCC(CN4CCC(N5Cc6cc7c(cc6C5)C(=O)N(C5CCC(=O)NC5=O)C7=O)CC4)CC3)cc2F)N1CC(F)F` (stereo partly drawn) [E 251, 6-(1-((1-(4-((1R,3R)-2-(2,2-difluoroethyl)-3-methyl-2,3,4,9-tetrahydro-1H-pyrido[3,4-b]indol-1-yl)-3,5-difluorophenyl)piperidin-4-yl)methyl)piperidin-4-yl)-2-(2,6-dioxopiperidin-3-yl)-6,7-dihydropyrrolo[3,4-f]isoindole-1,3(2H,5H)-dione] the DC50 was under 0.01 µM. `O=C1CCC(N2C(=O)c3cc4c(cc3C2=O)CN(C(=O)CN2CCC3(CC2)CC(Oc2ccc([C@@H]5c6ccc(O)cc6CC[C@@H]5c5ccccc5)cc2)C3)C4)C(=O)N1` (stereo partly drawn) [E 222, 2-(2,6-dioxopiperidin-3-yl)-6-(2-(2-(4-((1R,2S)-6-hydroxy-2-phenyl-1,2,3,4-tetrahydronaphthalen-1-yl)phenoxy)-7-azaspiro[3.5]nonan-7-yl)acetyl)-6,7-dihydropyrrolo[3,4-f]isoindole-1,3(2H,5H)-dione] gave a DC50 of over 0.1 µM. `C[C@@H]1Cc2cc(O)ccc2[C@@H](c2c(F)cc(N3CCC4(CCN(CC(=O)N5Cc6cc7c(cc6C5)C(=O)N(C5CCC(=O)NC5=O)C7=O)C4)C3)cc2F)N1CC(C)(F)F` (stereo partly drawn) [E 31, 6-(2-(7-(4-((1S,3R)-2-(2,2-difluoropropyl)-6-hydroxy-3-methyl-1,2,3,4-tetrahydroisoquinolin-1-yl)-3,5-difluorophenyl)-2,7-diazaspiro[4.4]nonan-2-yl)acetyl)-2-(2,6-dioxopiperidin-3-yl)-6,7-dihydropyrrolo[3,4-f]isoindole-1,3(2H,5H)-dione] gave a DC50 of over 0.1 µM. `C[C@@H]1Cc2c([nH]c3ccccc23)[C@@H](c2c(F)cc(CN3CCC4(CC3)CC(CN3Cc5cc6c(cc5C3)C(=O)N(C3CCC(=O)NC3=O)C6=O)C4)cc2F)N1CC(F)F` (stereo partly drawn) [E 370, 6-((7-(4-((1R,3R)-2-(2,2-difluoroethyl)-3-methyl-2,3,4,9-tetrahydro-1H-pyrido[3,4-b]indol-1-yl)-3,5-difluorobenzyl)-7-azaspiro[3.5]nonan-2-yl)methyl)-2-(2,6-dioxopiperidin-3-yl)-6,7-dihydropyrrolo[3,4-f]isoindole-1,3(2H,5H)-dione] showed a DC50 of over 0.1 µM. `O=C1CCC(N2C(=O)c3cc4c(cc3C2=O)CN(C(=O)C2CCN(CC3CCN(c5ccc([C@@H]6c7ccc(O)cc7CC[C@@H]6c6ccccc6)cc5)CC3)CC2)C4)C(=O)N1` (stereo partly drawn) [E 205, 2-(2,6-dioxopiperidin-3-yl)-6-(1-((1-(4-((1R,2S)-6-hydroxy-2-phenyl-1,2,3,4-tetrahydronaphthalen-1-yl)phenyl)piperidin-4-yl)methyl)piperidine-4-carbonyl)-6,7-dihydropyrrolo[3,4-f]isoindole-1,3(2H,5H)-dione] gave a DC50 of over 0.1 µM. For `C[C@@H]1Cc2cc(O)ccc2[C@@H](c2c(F)cc(N3CCN(C(=O)[C@H]4CC[C@H](N5Cc6cc7c(cc6C5)C(=O)N(C5CCC(=O)NC5=O)C7=O)CC4)CC3)cc2F)N1CC(F)F` (mixture of isomers) [E 353, rac-6-((1S,4r)-4-(4-(4-((1S,3R)-2-(2,2-difluoroethyl)-6-hydroxy-3-methyl-1,2,3,4-tetrahydroisoquinolin-1-yl)-3,5-difluorophenyl)piperazine-1-carbonyl)cyclohexyl)-2-(2,6-dioxopiperidin-3-yl)-6,7-dihydropyrrolo[3,4-f]isoindole-1,3(2H,5H)-dione], the DC50 was over 0.1 µM. `O=C1CCC(N2C(=O)c3cc4c(cc3C2=O)CN(C(=O)[C@H]2CC[C@H](N3CC(Nc5ccc([C@H]6c7ccc(O)cc7CC[C@H]6c6ccccc6)cc5)C3)CC2)C4)C(=O)N1` (stereo partly drawn) [E 391, 2-(2,6-dioxopiperidin-3-yl)-6-((1S,4r)-4-(3-((4-((1S,2R)-6-hydroxy-2-phenyl-1,2,3,4-tetrahydronaphthalen-1-yl)phenyl)amino)azetidin-1-yl)cyclohexane-1-carbonyl)-6,7-dihydropyrrolo[3,4-f]isoindole-1,3(2H,5H)-dione] showed a DC50 of over 0.1 µM. `O=C1CCC(N2C(=O)c3cc4c(cc3C2=O)CN(C(=O)CN2CCC3(CC2)CCN(c2ccc([C@@H]5c6ccc(O)cc6CC[C@@H]5c5ccccc5)cc2F)C3)C4)C(=O)N1` (mixture of isomers) [E 154, Rac-2-(2,6-dioxopiperidin-3-yl)-6-(2-(2-(2-fluoro-4-((1R,2S)-6-hydroxy-2-phenyl-1,2,3,4-tetrahydronaphthalen-1-yl)phenyl)-2,8-diazaspiro[4.5]decan-8-yl)acetyl)-6,7-dihydropyrrolo[3,4-f]isoindole-1,3(2H,5H)-dione] was tested, and the DC50 was over 0.1 µM. In the case of `O=C1CCC(N2C(=O)c3cc4c(cc3C2=O)CN(C(=O)CN2CCC3(CC2)CCN(c2ccc([C@@H]5c6ccc(O)cc6CC[C@@H]5c5ccccc5)cc2)C3)C4)C(=O)N1` (mixture of isomers) [E 141, Rac-2-(2,6-dioxopiperidin-3-yl)-6-(2-(2-(4-((1R,2S)-6-hydroxy-2-phenyl-1,2,3,4-tetrahydronaphthalen-1-yl)phenyl)-2,8-diazaspiro[4.5]decan-8-yl)acetyl)-6,7-dihydropyrrolo[3,4-f]isoindole-1,3(2H,5H)-dione], the DC50 is reported as over 0.1 µM. With `O=C1CCC(N2C(=O)c3cc4c(cc3C2=O)CN(CC(=O)N2CC3(CCN(c5ccc([C@@H]6c7ccc(O)cc7CC[C@@H]6c6ccccc6)cc5)CC3)C2)C4)C(=O)N1` (stereo partly drawn) [E 148, 2-(2,6-dioxopiperidin-3-yl)-6-(2-(7-(4-((1R,2S)-6-hydroxy-2-phenyl-1,2,3,4-tetrahydronaphthalen-1-yl)phenyl)-2,7-diazaspiro[3.5]nonan-2-yl)-2-oxoethyl)-6,7-dihydropyrrolo[3,4-f]isoindole-1,3(2H,5H)-dione] the DC50 was under 0.01 µM. `C[C@@H]1Cc2cc(O)ccc2[C@@H](c2c(F)cc(N3CC4(CCN(C(=O)CN5Cc6cc7c(cc6C5)C(=O)N(C5CCC(=O)NC5=O)C7=O)C4)C3)cc2F)N1CC(F)F` (stereo partly drawn) [E 43, 6-(2-(2-(4-((1S,3R)-2-(2,2-difluoroethyl)-6-hydroxy-3-methyl-1,2,3,4-tetrahydroisoquinolin-1-yl)-3,5-difluorophenyl)-2,6-diazaspiro[3.4]octan-6-yl)-2-oxoethyl)-2-(2,6-dioxopiperidin-3-yl)-6,7-dihydropyrrolo[3,4-f]isoindole-1,3(2H,5H)-dione] showed a DC50 of under 0.01 µM. `C[C@@H]1Cc2c([nH]c3ccccc23)[C@H](c2c(F)cc(C(=O)N3CCC4(CCC(CN5Cc6cc7c(cc6C5)C(=O)N(C5CCC(=O)NC5=O)C7=O)CC4)CC3)cc2F)N1CC(F)F` (stereo partly drawn) [E 379, 6-((3-(4-((1S,3R)-2-(2,2-difluoroethyl)-3-methyl-2,3,4,9-tetrahydro-1H-pyrido[3,4-b]indol-1-yl)-3,5-difluorobenzoyl)-3-azaspiro[5.5]undecan-9-yl)methyl)-2-(2,6-dioxopiperidin-3-yl)-6,7-dihydropyrrolo[3,4-f]isoindole-1,3(2H,5H)-dione] showed a DC50 of over 0.1 µM.

Same assay, conditions: compounds 16 hours, Table A does not say whether T47D or MCF7, read-out: Potency (DC50)
`C[C@@H]1Cc2cc(O)ccc2[C@@H](c2c(F)cc(NC3CC4(CCN(C(=O)CN5Cc6cc7c(cc6C5)C(=O)N(C5CCC(=O)NC5=O)C7=O)CC4)C3)cc2F)N1CC(F)F` (stereo partly drawn) [E 451, 6-(2-(2-((4-((1S,3R)-2-(2,2-difluoroethyl)-6-hydroxy-3-methyl-1,2,3,4-tetrahydroisoquinolin-1-yl)-3,5-difluorophenyl)amino)-7-azaspiro[3.5]nonan-7-yl)-2-oxoethyl)-2-(2,6-dioxopiperidin-3-yl)-6,7-dihydropyrrolo[3,4-f]isoindole-1,3(2H,5H)-dione] was tested, and the DC50 was 0.01 to 0.1 µM. `C[C@@H]1Cc2c(ccc3[nH]ncc23)[C@@H](c2c(F)cc(N3CCC(C(=O)N4C5CCC4CC(N4Cc6cc7c(cc6C4)C(=O)N(C4CCC(=O)NC4=O)C7=O)C5)CC3)cc2F)N1CC(F)F` (stereo partly shown) [E 469] was tested, and the DC50 was 0.01 to 0.1 µM. Compound `C[C@@H]1Cc2c([nH]c3ccccc23)[C@@H](c2cnc(N3CC4(CCC(CN5Cc6cc7c(cc6C5)C(=O)N(C5CCC(=O)NC5=O)C7=O)CC4)C3)nc2)N1CC(C)(C)F` (stereo partly drawn) [E 471, 2-(2,6-dioxopiperidin-3-yl)-6-((2-(5-((1R,3R)-2-(2-fluoro-2-methylpropyl)-3-methyl-2,3,4,9-tetrahydro-1H-pyrido[3,4-b]indol-1-yl)pyrimidin-2-yl)-2-azaspiro[3.5]nonan-7-yl)methyl)-6,7-dihydropyrrolo[3,4-f]isoindole-1,3(2H,5H)-dione] has a DC50 of 0.01 to 0.1 µM.
